The target of experiment [1] is T1, PRMT5 (Homo sapiens, UniProt O14744).
T1 construct: purchased Viva (custom protein)
Put plainly: PRMT5 biochemical IC50 assay with SAM as cofactor. To be noted: PRMT5, SAM as cofactor; read-out: SAM IC50.

In experiment [2] the target is T1, PRMT5. In words: PRMT5 biochemical IC50 assay with no cofactor. To be noted: PRMT5, no cofactor; read-out: No Cofactor/ rel IC50. The text has this:
Table 1 indicates IC50 values (μM) against PRMT5 for exemplary compounds in the presence of SAM as cofactor, with no cofactor, and with MTA as cofactor, respectively (columns 4-6). […] Ki values can be calculated from the IC50 values as described in the Examples section. As detailed in the Examples section, for the assay performed in the presence of SAM, IC50=Ki×1.5 (Ki=IC50/1.5).

Experiment [3] addresses T1, PRMT5. In words: PRMT5 biochemical IC50 assay with MTA as cofactor. Particulars: PRMT5, MTA as cofactor; read-out: MTA IC50.
For experiment [4], the system named is HAP1 MTAP-intact cell line. Put plainly: SDMA in-cell western assay, HAP1 MTAP-intact. Format: cell-based. To be noted: Homo sapiens, HAP1, SDMA in-cell western, HAP1 MTAP-intact; read-out: MTAP HAP1 intact IC50. Put shortly: (§1)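 IC50 values come from SDMA signal quantified by in-cell western in two HAP1 lines, one with native MTAP levels and one lacking MTAP.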

Experiment [5] concerns HAP1 MTAP-deleted cell line. In words: SDMA in-cell western assay, HAP1 MTAP-deleted. Format: cell-based. Particulars: for IC50: Homo sapiens, HAP1, SDMA in-cell western, HAP1 MTAP-deleted, read-out: HAP 1 MTAP deleted IC50; for MTAP intact/deleted ratio: IC50 ratio HAP1 MTAP-intact / HAP1 MTAP-deleted, SDMA in-cell western. The method in brief: as §1
In experiment [6] the test system is HAP1 MTAP-deleted cell line. Put plainly: Viability assay, MTAP-deleted cell line. In kind it is cell-based. To be noted: Homo sapiens, HAP1, viability, HAP1 MTAP-deleted cell line; read-out: HAP1 MTAP deleted viability. The text has this: Table 1 additionally indicates IC50 values in a viability assay for the MTAP-deleted cell line (column 10), indicating the effect of treatment with compound on cell survival.

T1 sequence (O14744 whole entry): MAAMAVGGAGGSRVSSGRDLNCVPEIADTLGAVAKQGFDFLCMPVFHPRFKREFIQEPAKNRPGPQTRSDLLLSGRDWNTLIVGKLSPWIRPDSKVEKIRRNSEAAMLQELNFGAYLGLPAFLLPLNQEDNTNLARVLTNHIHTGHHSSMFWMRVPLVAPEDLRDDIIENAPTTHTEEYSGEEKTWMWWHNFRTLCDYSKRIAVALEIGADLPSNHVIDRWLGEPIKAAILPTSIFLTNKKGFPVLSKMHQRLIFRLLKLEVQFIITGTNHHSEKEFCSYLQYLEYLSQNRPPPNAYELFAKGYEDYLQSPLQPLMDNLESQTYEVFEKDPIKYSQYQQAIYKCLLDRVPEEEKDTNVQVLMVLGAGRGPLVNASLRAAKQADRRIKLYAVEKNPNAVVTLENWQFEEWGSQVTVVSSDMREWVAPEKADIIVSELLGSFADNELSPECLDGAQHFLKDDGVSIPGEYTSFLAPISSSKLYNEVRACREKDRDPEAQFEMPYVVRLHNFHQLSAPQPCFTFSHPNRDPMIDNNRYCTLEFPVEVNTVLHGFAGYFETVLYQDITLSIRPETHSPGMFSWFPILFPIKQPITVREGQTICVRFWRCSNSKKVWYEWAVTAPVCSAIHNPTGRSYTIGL
T1 sequence (Q9BQA1 whole entry partner): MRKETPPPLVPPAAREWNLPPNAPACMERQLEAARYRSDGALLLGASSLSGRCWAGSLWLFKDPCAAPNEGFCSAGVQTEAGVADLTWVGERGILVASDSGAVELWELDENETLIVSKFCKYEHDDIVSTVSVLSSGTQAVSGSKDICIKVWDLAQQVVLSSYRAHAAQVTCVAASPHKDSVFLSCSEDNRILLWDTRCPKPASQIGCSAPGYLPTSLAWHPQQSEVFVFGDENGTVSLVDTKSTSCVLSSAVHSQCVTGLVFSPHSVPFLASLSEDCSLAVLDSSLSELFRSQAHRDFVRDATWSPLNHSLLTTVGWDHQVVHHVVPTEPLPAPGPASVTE

For `CCN1CCC(c2nc3cc([C@H]4CC[C@H](C)CN4C(=O)C(=O)Nc4cnc(N)c(C)c4)ccc3s2)CC1` [Compound 1335, N-(6-amino-5-methylpyridin-3-yl)-2-((2R,5S)-2-(2-(1-ethylpiperidin-4-yl)benzo[d]thiazol-5-yl)-5-methylpiperidin-1-yl)-2-oxoacetamide], the IC50 at PRMT5 [1] was under 50 nM; on PRMT5 [2], under 50 nM; on PRMT5 [3], under 50 nM; in experiment [4], under 100 nM; in experiment [5], under 100 nM; in experiment [6], under 1000 nM. Besides, the “MTAP intact/deleted ratio” value in experiment [5] is “A (an IC50 ratio greater than or equal to 10 fold)”.
For `CCc1cc(NC(=O)C(=O)N2C[C@@H](C)CC[C@@H]2c2ccc3sc([C@H]4C[C@@H]5CN(C)C[C@@H]5C4)nc3c2)cnc1N` [Compound 1338, N-(6-amino-5-ethylpyridin-3-yl)-2-((2R,5S)-5-methyl-2-(2-((3aR,5r,6aS)-2-methyloctahydrocyclopenta[c]pyrrol-5-yl)benzo[d]thiazol-5-yl)piperidin-1-yl)-2-oxoacetamide], the IC50 at PRMT5 [1] is under 50 nM; at PRMT5 [2] it was under 50 nM; on PRMT5 [3] it was under 50 nM; in experiment [4], under 100 nM; in experiment [5] it was under 100 nM; in experiment [6], under 1000 nM. Moreover, the “MTAP intact/deleted ratio” value in experiment [5] is “A (an IC50 ratio greater than or equal to 10 fold)”.
Turning to `CCc1cc(NC(=O)C(=O)N2C[C@@H](C)CC[C@@H]2c2ccc3sc(C4CC(C)(C)N(C)C(C)(C)C4)nc3c2)cnc1N` [Compound 1340, N-(6-amino-5-ethylpyridin-3-yl)-2-((2R,5)-5-methyl-2-(2-(1,2,2,6,6-pentamethylpiperidin-4-yl)benzo[d]thiazol-5-yl)piperidin-1-yl)-2-oxoacetamide], the IC50 was 50 to 500 nM on PRMT5 [1]; under 50 nM at PRMT5 [2]; under 50 nM at PRMT5 [3]; under 100 nM in experiment [4]; under 100 nM in experiment [5]; under 1000 nM in experiment [6]. Further, the “MTAP intact/deleted ratio” value in experiment [5] was “A (an IC50 ratio greater than or equal to 10 fold)”.
`COc1ncc(NC(=O)C(=O)N2C[C@@H](C)CC[C@@H]2c2ccc(CCN(C)C)c(Cl)c2)cc1C(N)=O` [Compound 1341, 5-(2-((2R,5S)-2-(3-chloro-4-(2-(dimethylamino)ethyl)phenyl)-5-methylpiperidin-1-yl)-2-oxoacetamido)-2-methoxynicotinamide]: the IC50 at PRMT5 [1] is 50 to 500 nM; at PRMT5 [2], under 50 nM; on PRMT5 [3] it was under 50 nM; in experiment [4], over 1000 nM; in experiment [5] it was under 100 nM; in experiment [6], under 1000 nM.
Take `CCc1cc(NC(=O)C(=O)N2C[C@@H](C)CC[C@@H]2c2cccc([C@H]3CCN(C)C3)c2)cnc1N` [Compound 1342, N-(6-amino-5-ethylpyridin-3-yl)-2-((2R,5S)-5-methyl-2-(3-(1-methylpyrrolidin-3-yl)phenyl)piperidin-1-yl)-2-oxoacetamide]: the IC50 at PRMT5 [1] was under 50 nM; on PRMT5 [2] it was under 50 nM; on PRMT5 [3], under 50 nM; in experiment [4], 100 to 1000 nM; in experiment [5] it was under 100 nM; in experiment [6], under 1000 nM. The “MTAP intact/deleted ratio” value in experiment [5] is recorded as “A (an IC50 ratio greater than or equal to 10 fold)”.
Consider `CCc1cc(NC(=O)C(=O)N2C[C@@H](C)CC[C@@H]2c2ccc3sc(C4(CN(C)C)CC4)nc3c2)cnc1N` [Compound 1347, N-(6-amino-5-ethylpyridin-3-yl)-2-((2R,5S)-2-(2-(1-((dimethylamino)methyl)cyclopropyl)benzo[d]thiazol-5-yl)-5-methylpiperidin-1-yl)-2-oxoacetamide], for which the IC50 at PRMT5 [1] was 50 to 500 nM; on PRMT5 [2], under 50 nM; on PRMT5 [3], under 50 nM; in experiment [4] it was under 100 nM; in experiment [5], under 100 nM; in experiment [6], under 1000 nM. Further, the “MTAP intact/deleted ratio” value in experiment [5] was “A (an IC50 ratio greater than or equal to 10 fold)”.
Consider `CCc1cc(NC(=O)C(=O)N2C[C@@H](C)CC[C@@H]2c2cccc(OCC3CCN(C)CC3)c2)cnc1N` [Compound 1348, N-(6-amino-5-ethylpyridin-3-yl)-2-((2R,5S)-5-methyl-2-(3-((1-methylpiperidin-4-yl)methoxy)phenyl)piperidin-1-yl)-2-oxoacetamide], for which the IC50 was under 50 nM on PRMT5 [1]; under 50 nM at PRMT5 [2]; under 50 nM on PRMT5 [3]; under 100 nM in experiment [4]; under 100 nM in experiment [5]; under 1000 nM in experiment [6]. The “MTAP intact/deleted ratio” value in experiment [5] is “A (an IC50 ratio greater than or equal to 10 fold)”.
As for `COc1ncc(NC(=O)C(=O)N2C[C@@H](C)CC[C@@H]2c2cccc(OCCN(C)C)c2)cc1C(N)=O` [Compound 1352, 5-(2-((2R,5S)-2-(3-(2-(dimethylamino)ethoxy)phenyl)-5-methylpiperidin-1-yl)-2-oxoacetamido)-2-methoxynicotinamide], the IC50 at PRMT5 [1] is under 50 nM; at PRMT5 [2], under 50 nM; on PRMT5 [3] it was under 50 nM; in experiment [4] it was over 1000 nM; in experiment [5], under 100 nM; in experiment [6] it was under 1000 nM.
Consider `C[C@H]1CC[C@H](c2ccc3sc(CN(C)C)nc3c2)N(C(=O)C(=O)Nc2cnc(N)c(C3CC3)c2)C1` [Compound 1354, N-(6-Amino-5-cyclopropyl-3-pyridyl)-2-[(2R,5S)-2-[2-[(dimethylamino)methyl]-1,3-benzothiazol-5-yl]-5-methyl-1-piperidyl]-2-oxo-acetamide], for which the IC50 on PRMT5 [1] is 50 to 500 nM; on PRMT5 [2], under 50 nM; at PRMT5 [3], under 50 nM; in experiment [4], under 100 nM; in experiment [5] it was under 100 nM; in experiment [6], under 1000 nM. Besides, the “MTAP intact/deleted ratio” value in experiment [5] was “A (an IC50 ratio greater than or equal to 10 fold)”.
Consider `COc1ncc(NC(=O)C(=O)N2C[C@@H](C)CC[C@@H]2c2ccc3sc([C@H]4CCCN(C)C4)nc3c2)cc1C(N)=O` [Compound 1359, 2-methoxy-5-(2-((2R,5S)-5-methyl-2-(2-((S)-1-methylpiperidin-3-yl)benzo[d]thiazol-5-yl)piperidin-1-yl)-2-oxoacetamido)nicotinamide], for which the IC50 was under 50 nM on PRMT5 [1]; under 50 nM on PRMT5 [2]; under 50 nM on PRMT5 [3]; under 100 nM in experiment [4]; under 100 nM in experiment [5]; under 1000 nM in experiment [6]. In addition, the “MTAP intact/deleted ratio” value in experiment [5] is listed as “A (an IC50 ratio greater than or equal to 10 fold)”.
As to `CCc1cc(NC(=O)C(=O)N2C[C@@H](C)CC[C@@H]2c2cccc(OC[C@@H]3CCCN3C)c2)cnc1N` [Compound 1362, N-(6-amino-5-ethylpyridin-3-yl)-2-((2R,5S)-5-methyl-2-(3-((1-methylpyrrolidin-2-yl)methoxy)phenyl)piperidin-1-yl)-2-oxoacetamide], the IC50 on PRMT5 [1] is 50 to 500 nM; at PRMT5 [2] it was under 50 nM; on PRMT5 [3] it was under 50 nM; in experiment [4] it was 100 to 1000 nM; in experiment [5], under 100 nM; in experiment [6], under 1000 nM. The “MTAP intact/deleted ratio” value in experiment [5] is recorded as “A (an IC50 ratio greater than or equal to 10 fold)”.
As for `CCc1cc(NC(=O)C(=O)N2C[C@@H](C)CC[C@@H]2c2cccc(C3CCN(C)CC3)c2)cnc1N` [Compound 1363, N-(6-Amino-5-ethyl-3-pyridyl)-2-oxo-2-[(2R,5S)-5-methyl-2-[3-(1-methyl-4-piperidyl)phenyl]-1-piperidyl]acetamide], the IC50 on PRMT5 [1] was under 50 nM; on PRMT5 [2] it was under 50 nM; at PRMT5 [3], under 50 nM; in experiment [4] it was 100 to 1000 nM; in experiment [5], under 100 nM; in experiment [6], under 1000 nM. Moreover, the “MTAP intact/deleted ratio” value in experiment [5] is recorded as “A (an IC50 ratio greater than or equal to 10 fold)”.
Regarding `CCc1cc(NC(=O)C(=O)N2C[C@@H](C)CC[C@@H]2c2ccc3ccc(C4CCN(C)CC4)nc3c2)cnc1N` [Compound 1365, N-(6-amino-5-ethyl-3-pyridyl)-2-oxo-2-[(2R,5S)-5-methyl-2-[2-(1-methyl-4-piperidyl)-7-quinolyl]-1-piperidyl]acetamide], the IC50 at PRMT5 [1] is 50 to 500 nM; at PRMT5 [2], under 50 nM; at PRMT5 [3] it was under 50 nM; in experiment [4], under 100 nM; in experiment [5], under 100 nM; in experiment [6], under 1000 nM. Also, in experiment [5], the “MTAP intact/deleted ratio” value was “A (an IC50 ratio greater than or equal to 10 fold)”.
